Data reported in PubChem BioAssay (NCI).
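A five-concentration, 48-hour dose response in 96-well plates underlies each endpoint, interpolated linearly between surrounding concentrations. TGI is the concentration that stops growth completely.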

Experiments:
Test in all cases: NCI tumour cell line growth inhibition, 48 h
[1] = test system: NCI-H23 lung
[2] = test system: HL-60(TB) leukemia
[3] = test system: HOP-92 NSCLC
[4] = test system: OVCAR-4 ovarian
[5] = test system: IGROV1 ovarian
[6] = test system: EKVX NSCLC
[7] = test system: DMS 273 small cell lung
[8] = test system: U251 CNS
[9] = test system: UACC-62 melanoma
[10] = test system: HT29 colon
[11] = test system: SN12C renal
[12] = test system: SW-620 colon
[13] = test system: COLO 205 colon
[14] = test system: OVCAR-8 ovarian
[15] = test system: DLD-1 colon
[16] = test system: UACC-257 melanoma
[17] = test system: CCRF-CEM leukemia
[18] = test system: KM20L2 colon
[19] = test system: DMS 114 small cell lung
[20] = test system: MALME-3M melanoma
[21] = test system: OVCAR-3 ovarian
[22] = test system: HCT-116 colon
[23] = test system: M19-MEL melanoma
[24] = test system: K-562 leukemia
[25] = test system: SNB-75 CNS
[26] = test system: M14 melanoma
[27] = test system: SNB-19 CNS
[28] = test system: SF-539 CNS
[29] = test system: SNB-78 CNS
[30] = test system: NCI-H460 lung
[31] = test system: RXF 393 renal
[32] = test system: HOP-62 NSCLC
[33] = test system: LOX IMVI melanoma
[34] = test system: CAKI-1 renal
[35] = test system: UO-31 renal
[36] = test system: HCT-15 colon
[37] = test system: A549 NSCLC
[38] = test system: HOP-18 NSCLC
[39] = test system: ACHN renal
[40] = test system: SK-MEL-5 melanoma
[41] = test system: SK-OV-3 ovarian
[42] = test system: TK-10 renal
[43] = test system: SF-295 CNS
[44] = test system: SK-MEL-28 melanoma
[45] = test system: 786-0 renal
[46] = test system: NCI-H522 lung
[47] = test system: HCC-2998 colon
[48] = test system: KM12 colon
[49] = test system: SK-MEL-2 melanoma
[50] = test system: LXFL 529 NSCLC
[51] = test system: SF-268 CNS
[52] = test system: NCI-H226 lung
[53] = test system: OVCAR-5 ovarian
[54] = test system: DU-145 prostate
[55] = test system: MOLT-4 leukemia
[56] = test system: MDA-MB-231 breast
[57] = test system: RPMI-8226 leukemia
[58] = test system: SR leukemia
[59] = test system: MCF7 breast
[60] = test system: PC-3 prostate
[61] = test system: A498 renal
[62] = test system: NCI/ADR-RES ovarian
[63] = test system: MDA-MB-435

CCOC(=O)NC(=O)c1cn(CCSCCOC(=O)NCCCCCCNC(=O)OCCSCCn2cc(C(=O)NC(=O)OCC)c(=O)[nH]c2=O)c(=O)[nH]c1=O
TGI [1]: > 100 µM
TGI [2]: > 100 µM
TGI [3]: > 100 µM
TGI [4]: > 100 µM
TGI [5]: > 100 µM
TGI [6]: > 100 µM
TGI [7]: > 100 µM
TGI [8]: > 100 µM
TGI [9]: > 100 µM
TGI [10]: > 100 µM
TGI [11]: > 100 µM
TGI [12]: > 100 µM
TGI [13]: > 100 µM
TGI [14]: > 100 µM
TGI [15]: > 100 µM
TGI [16]: > 100 µM
TGI [17]: > 100 µM
TGI [18]: > 100 µM
TGI [19]: > 100 µM
TGI [20]: > 100 µM
TGI [21]: > 100 µM
TGI [22]: > 100 µM
TGI [23]: > 100 µM
TGI [24]: > 100 µM
TGI [25]: > 100 µM
TGI [26]: > 100 µM
TGI [27]: > 100 µM
TGI [28]: > 100 µM
TGI [29]: > 100 µM
TGI [30]: > 100 µM
TGI [31]: > 100 µM
TGI [32]: > 100 µM
TGI [33]: > 100 µM
TGI [34]: > 100 µM
TGI [35]: > 100 µM
TGI [36]: > 100 µM
TGI [37]: > 100 µM
TGI [38]: > 100 µM
TGI [39]: > 100 µM
TGI [40]: > 100 µM
TGI [41]: > 100 µM
TGI [42]: > 100 µM
TGI [43]: > 100 µM
TGI [44]: > 100 µM

Cc1ccc(C(=O)NC(C)(C)C)cc1N=NN(C)C
TGI [1]: > 100 µM
TGI [3]: > 100 µM
TGI [4]: > 100 µM
TGI [5]: > 100 µM
TGI [6]: > 100 µM
TGI [7]: > 100 µM
TGI [45]: > 100 µM
TGI [8]: > 100 µM
TGI [9]: > 100 µM
TGI [10]: > 100 µM
TGI [11]: > 100 µM
TGI [12]: > 100 µM
TGI [14]: > 100 µM
TGI [15]: > 100 µM
TGI [16]: > 100 µM
TGI [18]: > 100 µM
TGI [46]: > 100 µM
TGI [21]: > 100 µM
TGI [22]: > 100 µM
TGI [47]: > 100 µM
TGI [48]: > 100 µM
TGI [26]: > 100 µM
TGI [49]: > 100 µM
TGI [27]: > 100 µM
TGI [28]: > 100 µM
TGI [29]: > 100 µM
TGI [30]: > 100 µM
TGI [50]: > 100 µM
TGI [51]: > 100 µM
TGI [32]: > 100 µM
TGI [33]: > 100 µM
TGI [34]: > 100 µM
TGI [35]: > 100 µM
TGI [36]: > 100 µM
TGI [37]: > 100 µM
TGI [39]: > 100 µM
TGI [40]: > 100 µM
TGI [42]: > 100 µM
TGI [43]: > 100 µM
TGI [44]: > 100 µM

Cc1cc(-c2ccccc2)cc2[n+]1CC=C2
TGI [1]: > 100 µM
TGI [52]: > 100 µM
TGI [2]: > 100 µM
TGI [3]: 94.8 µM
TGI [4]: > 100 µM
TGI [6]: > 100 µM
TGI [7]: > 100 µM
TGI [53]: > 100 µM
TGI [45]: > 100 µM
TGI [8]: > 100 µM
TGI [10]: > 100 µM
TGI [11]: > 100 µM
TGI [12]: > 100 µM
TGI [13]: > 100 µM
TGI [14]: > 100 µM
TGI [15]: > 100 µM
TGI [16]: > 100 µM
TGI [18]: > 100 µM
TGI [46]: > 100 µM
TGI [19]: > 100 µM
TGI [20]: > 100 µM
TGI [22]: > 100 µM
TGI [23]: > 100 µM
TGI [47]: > 100 µM
TGI [48]: > 100 µM
TGI [25]: > 100 µM
TGI [26]: > 100 µM
TGI [49]: > 100 µM
TGI [27]: > 100 µM
TGI [28]: > 100 µM
TGI [29]: > 100 µM
TGI [30]: > 100 µM
TGI [50]: > 100 µM
TGI [51]: > 100 µM
TGI [31]: 97.6 µM
TGI [32]: > 100 µM
TGI [33]: > 100 µM
TGI [34]: > 100 µM
TGI [35]: > 100 µM
TGI [37]: > 100 µM
TGI [39]: > 100 µM
TGI [42]: > 100 µM
TGI [43]: > 100 µM
TGI [44]: > 100 µM

CC[C@]12C=CCN3CCC4(c5cc([C@@]6(C(=O)OC)CC7CN(CCc8c6[nH]c6ccccc86)C[C@@H]6CCC[C@H]76)c(OC)cc5N(C)C4[C@](O)(C(=O)OC)C1OC(C)=O)C32 (some centres not stated)
TGI [1]: 1.42 µM
TGI [52]: 1.5 µM
TGI [2]: 0.289 µM
TGI [3]: > 10 µM
TGI [4]: > 8.93 µM
TGI [5]: 7.31 µM
TGI [6]: > 3.86 µM
TGI [53]: > 10 µM
TGI [54]: 0.0749 µM
TGI [55]: 6.02 µM
TGI [45]: > 10 µM
TGI [8]: > 5.19 µM
TGI [9]: > 10 µM
TGI [10]: > 3.12 µM
TGI [11]: > 10 µM
TGI [12]: > 4.07 µM
TGI [13]: 0.375 µM
TGI [14]: > 4.81 µM
TGI [15]: > 10 µM
TGI [16]: > 10 µM
TGI [17]: > 10 µM
TGI [18]: 0.209 µM
TGI [46]: 0.113 µM
TGI [19]: 1.01 µM
TGI [20]: > 5.04 µM
TGI [56]: 0.536 µM
TGI [21]: 0.337 µM
TGI [22]: 3.64 µM
TGI [23]: > 10 µM
TGI [47]: > 6.75 µM
TGI [57]: > 7.96 µM
TGI [24]: > 10 µM
TGI [26]: > 3.45 µM
TGI [58]: 0.788 µM
TGI [49]: > 6.89 µM
TGI [27]: > 10 µM
TGI [28]: 0.574 µM
TGI [59]: > 10 µM
TGI [29]: > 2.85 µM
TGI [60]: > 10 µM
TGI [30]: > 4.71 µM
TGI [50]: > 10 µM
TGI [61]: 0.816 µM
TGI [51]: 1.6 µM
TGI [31]: 0.554 µM
TGI [32]: 1.31 µM
TGI [33]: > 10 µM
TGI [34]: > 10 µM
TGI [35]: > 10 µM
TGI [36]: > 10 µM
TGI [37]: > 10 µM
TGI [39]: > 8.37 µM
TGI [40]: 0.181 µM
TGI [41]: > 2.54 µM
TGI [62]: 4.75 µM
TGI [42]: > 10 µM
TGI [43]: > 3.23 µM
TGI [44]: > 10 µM
TGI [63]: 0.0249 µM
